{"source": "patent US20120190752A1", "about": "“EXO-S-MECAMYLAMINE METHOD, USE, AND COMPOUND FOR TREATMENT” (Targacept Inc., priority 2009, published 2012)", "test_system": "subjects with major depressive disorder (MDD) who were inadequate responders to citalopram", "assay": "CGI-I / CGI-GI (Clinical Global Impression-Improvement), Phase 2b add-on trial", "assay_type": "in vivo, human", "source_text": "The Clinical Global Impression—Improvement scale (CGI-I) is a 7 point scale that requires the clinician to assess how much the patient's illness has improved or worsened relative to a baseline state at the beginning of the intervention. The Clinical Global Impression—Efficacy Index is a 4 point×4 point rating scale that assesses the therapeutic effect of the treatment. In more detail, a multi-center double-blind, randomized, placebo-controlled, parallel group, flexible dose titration study of TC-5214 as adjunctive therapy in subjects with major depressive disorder (MDD) who were inadequate responders to citalopram was conducted in centers in the US and India. The study consisted of a screening period, baseline/washout period, open-label phase, double-blind phase, and a follow-up visit. Subject participation in the study could continue for up to 16 weeks of treatment. Following a washout period of up to 28 days for other antidepressants, subjects with MDD and a MADRS total score >/=28 and a Clinical Global Impression-Severity (CGI-S) score >/=4 were enrolled on Day 1 into an open-label citalopram-only phase of the study. This phase lasted 8 weeks, with citalopram (CIT) dose increased from a once-daily dose of 20 mg (Day 1 through Week 4) to 40 mg (Week 4 through Week 8). A total of 579 subjects entered the open-label citalopram phase. At Week 8, subjects who tolerated 40 mg CIT, but whose MADRS score was reduced <50% from baseline and no lower than 17, and CGI-S≧4, were considered inadequate responders. These subjects (n=270) were randomized in a double-blind fashion to receive either placebo or TC-5214-23 as add-on therapy to continued CIT. The double-blind phase of the study also lasted 8 weeks (Week 8 to Week 16). Study drug, TC-5214-23 or placebo, was started at 2 mg daily (1 mg twice per day [BID] dosing), added on to continuing CIT (40 mg PO qd). After 2 weeks of treatment, the dose of TC-5214 could be increased to 4 mg (2 mg BID) or continued unchanged, with up-titration based upon good tolerability and inadequate therapeutic response. After a further 2 weeks, the dose of TC-5214 could be increased again to 8 mg (4 mg BID) if judged appropriate by the investigator, based upon good tolerability and inadequate therapeutic response. At any time during the double-blind phase of the study, placebo or TC-5214-23 could be reduced to the previous dose level following the emergence of unacceptable adverse events (AEs). […] At this follow-up, any signs or symptoms of relapse were evaluated. If a subject was prematurely discontinued from the study between Week 8 and Week 16 for any reason, the investigator was to make every effort to perform all evaluations as per protocol, assuming the subject had reached the end of the double-blind add-on treatment phase. These evaluations were to be made as soon as possible and within 2 weeks of discontinuation. […] There was no meaningful difference in results as a function of age, gender, site, or smoking status. With regard to efficacy endpoints, the following tables present efficacy used in the ITT (Intent-to-Treat) and PP (Per Protocol) populations unless otherwise specific. The primary inference was based upon Week 16 visit using the ITT population. Change from baseline was obtained by subtracting the baseline values from the individual on-treatment values. Change from Week 16 was obtained by subtracting the Week 16 values from the individual follow-up visit (Week 18/19) values. If either the baseline or Week 16 or on-treatment or follow-up value was missing, the change from baseline or Week 16 value was also set to missing. To account for missing data, the last observation carry forward (LOCF) method was used for the ITT and PP populations. Thus, the last available on-therapy observation for a subject, including the observation at premature discontinuation, was used to estimate subsequent missing data points. […]", "key": {"[1]": {"conditions": "ITT Population, Double Blind Week 16 LOCF"}, "[2]": {"conditions": "ITT Population, Double Blind Week 18 LOCF (Follow-up)"}, "[3]": {"conditions": "PP Population, Double Blind Week 16 LOCF"}, "[4]": {"conditions": "PP Population, Double Blind Week 18 LOCF (Follow-up)"}}}
{"smiles": "CNC1(C)C2CCC(C2)C1(C)C", "note": "(stereo in doubt) [TC-5214, (S)—N,2,3,3-tetramethylnorbornan-2-amine]", "values": [{"measurement": "CGI-I Adjusted Mean", "setting": "[1]", "result": 1.91}, {"measurement": "CGI-I Mean Difference between TC-5214 and Placebo", "setting": "[1]", "result": 0.79}, {"measurement": "CGI-I Adjusted Mean", "setting": "[2]", "result": 1.90}, {"measurement": "CGI-I Mean Difference between TC-5214 and Placebo", "setting": "[2]", "result": 0.71}, {"measurement": "CGI-I score compared with placebo", "setting": "ITT and PP populations, Week 16 and Week 18, result in words", "result": "statistically significant decreases (improvements)"}, {"measurement": "CGI-GI Difference vs Placebo + CIT", "setting": "ITT, Week 16 LOCF", "result": "−0.79"}, {"measurement": "CGI-GI Adj. Mean", "setting": "ITT, Week 16 LOCF, add-on to citalopram", "result": 1.91}, {"measurement": "CGI-I Adjusted Mean", "setting": "[3]", "result": 1.84}, {"measurement": "CGI-I Mean Difference between TC-5214 and Placebo", "setting": "[3]", "result": 0.78}, {"measurement": "CGI-I Adjusted Mean", "setting": "[4]", "result": 1.83}, {"measurement": "CGI-I Mean Difference between TC-5214 and Placebo", "setting": "[4]", "result": 0.71}]}
